# Experimental data: patent publication US9302999B2, “Substituted triazoles as herbicides” (E. I. DU PONT DE NEMOURS AND COMPANY, priority 2012, dated 2016)
# Read-outs that look alike come from different tables or passages of the source.
# Experiments:
# Assay type in all cases: in vivo
# [1] = test system: bermudagrass (Cynodon dactylon); experiment: Test C pre-/postemergence: bermudagrass
# Description: Seeds of plant species selected from blackgrass (Alopecurus myosuroides), bromegrass, downy (downy bromegrass, Bromus tectorum), foxtail, green (green foxtail, Setaria viridis), ryegrass, Italian (Italian ryegrass, Lolium multiflorum), winter wheat (Triticum aestivum), wild oat (Avena fatua), galium (catchweed bedstraw, Galium aparine), bermudagrass (Cynodon dactylon), surinam grass (Brachiaria decumbens), cocklebur (common cocklebur, Xanthium strumarium), corn (Zea mays), large crabgrass (Digitaria sanguinalis), woolly cupgrass (Eriochloa villosa), foxtail, giant (giant foxtail, Setaria faberii), goosegrass (Eleusine indica), johnsongrass (Sorghum halepense), kochia (Kochia scoparia), lambsquarters (Chenopodium album), morningglory (Ipomoea coccinea), nightshade (eastern black nightshade, Solanum ptycanthum), nutsedge, yellow (yellow nutsedge, Cyperus esculentus), pigweed (Amaranthus retroflexus), ragweed (common ragweed, Ambrosia elation), soybean (Glycine max), common (oilseed) sunflower (Helianthus annuus), Russian thistle (Salsola kali) and velvetleaf (Abutilon theophrasti) were planted into a blend of loam soil and sand and treated preemergence with test chemicals formulated in a non-phytotoxic solvent mixture which included a surfactant.
# At the same time, plants selected from these crop and weed species and also barley (winter barley, Hordeum vulgare), canarygrass (Phalaris minor), chickweed (common chickweed, Stellaria media) windgrass (Apera spica-venti) and deadnettle (henbit deadnettle, Lamium amplexicaule) were planted in pots containing Redi-Earth® planting medium (Scotts Company, 14111 Scottslawn Road, Marysville, Ohio 43041) comprising spaghnum peat moss, vermiculite, wetting agent and starter nutrients and treated with postemergence applications of test chemicals formulated in the same manner. Plants ranged in height from 2 to 18 cm (1- to 4-leaf stage) for postemergence treatments.
# (§1) Treated plants and controls were maintained in a greenhouse for 13 to 15 days, after which time all species were compared to controls and visually evaluated. Plant response ratings, summarized in Table C, are based on a scale of 0 to 100 where 0 is no effect and 100 is complete control. A dash (-) response means no test result.
# [2] = test system: ducksalad (Heteranthera limosa); experiment: Test C flooded paddy test: ducksalad; details: scale 0 to 100 (0 no effect, 100 complete control); for pest or weed control at 62 g/ha / pest or weed control at 125 g/ha / pest or weed control at 250 g/ha / pest or weed control at 31 g/ha: Heteranthera limosa, read-out: Plant response rating, Ducksalad
# Outline: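 Plants at 2-leaf stage in pots flooded 3 cm above soil; compounds applied directly into the paddy water, depth maintained. Visual rating against controls after 13–15 days in greenhouse, scale 0 (no effect) to 100 (complete control).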
# [3] = test system: lambsquarters (Chenopodium album); experiment: Test D pre-/postemergence: lambsquarters
# Description: (§2) Seeds of plant species selected from bluegrass (annual bluegrass, Poa annua), blackgrass (Alopecurus myosuroides), canarygrass (Phalaris minor), chickweed (common chickweed, Stellaria media), galium (catchweed bedstraw, Galium aparine), bromegrass, downy (downy bromegrass, Bromus tectorum), field poppy (Papaver rhoeas), field violet (Viola arvensis), foxtail, green (green foxtail, Setaria viridis), deadnettle (henbit deadnettle, Lamium amplexicaule), ryegrass, Italian (Italian ryegrass, Lolium multiflorum), kochia (Kochia scoparia), lambsquarters (Chenopodium album), oilseed rape (Brassica napus), pigweed (Amaranthus retroflexus), Russian thistle (Salsola iberica), chamomile (scentless chamomile, Matricaria inodora), speedwell (bird's-eye speedwell, Veronica persica), barley, spring (spring barley, Hordeum vulgare), wheat, spring (spring wheat, Triticum aestivum), buckwheat, wild (wild buckwheat, Polygonum convolvulus), mustard, wild (wild mustard, Sinapis arvensis), oat, wild (wild oat, Avena fatua), radish, wild (wild radish, Raphanus raphanistrum), windgrass (Apera spica-venti), barley, winter (winter barley, Hordeum vulgare), and wheat, winter (winter wheat, Triticum aestivum) were planted into a silt loam soil and treated preemergence with test chemicals formulated in a non-phytotoxic solvent mixture which included a surfactant. At the same time, these same crop and weed species were planted in pots containing the planting medium comprising spaghnum peat moss, vermiculite, wetting agent and starter nutrients and treated with postemergence applications of the test chemicals formulated in the same manner. Plants ranged in height from 2 to 18 cm (1- to 4-leaf stage).
# as §1, with “controlled growth environment” for “greenhouse”, “14” for “13”, “21 days” for “15 days,”, “D,” for “C,”
# [4] = test system: wheat, spring (spring wheat, Triticum aestivum); experiment: Test D pre-/postemergence: wheat, spring
# Description: as §2
# as §1, with “controlled growth environment” for “greenhouse”, “14” for “13”, “21 days” for “15 days,”, “D,” for “C,”
# [5] = test system: foxtail, green (green foxtail, Setaria viridis); experiment: Test D pre-/postemergence: foxtail, green
# Description: as §2
# as §1, with “controlled growth environment” for “greenhouse”, “14” for “13”, “21 days” for “15 days,”, “D,” for “C,”
# [6] = Postemergence, 31 g ai/ha, scale 0 to 100 (0 no effect, 100 complete control)
# [7] = Postemergence, 62 g ai/ha, scale 0 to 100 (0 no effect, 100 complete control)
# [8] = Postemergence, 125 g ai/ha, scale 0 to 100, 0 no effect, 100 complete control
# [9] = Postemergence, 250 g ai/ha, scale 0 to 100
# [10] = Preemergence, 31 g ai/ha, scale of 0 to 100, 0 is no effect, 100 is complete control
# [11] = Preemergence, 62 g ai/ha, scale 0 to 100, 0 no effect, 100 complete control
# [12] = Preemergence, 125 g ai/ha, scale 0 to 100, 0 no effect, 100 complete control
# [13] = Preemergence, 250 g ai/ha, scale 0 to 100, 0 no effect, 100 complete control
# [14] = Flood (flooded paddy test), 62 g ai/ha, visual rating after 13 to 15 days
# [15] = Flood (flooded paddy test), 125 g ai/ha, visual rating after 13 to 15 days
# [16] = Flood (flooded paddy test), 250 g ai/ha, visual rating after 13 to 15 days
# [17] = Postemergence, 250 g ai/ha, scale 0 to 100 (0 no effect, 100 complete control)
# [18] = Postemergence, 16 g ai/ha, scale 0 to 100
# [19] = Preemergence, 16 g ai/ha, scale 0 to 100 (0 no effect, 100 complete control)
# [20] = Preemergence, 31 g ai/ha, scale 0 to 100 (0 no effect, 100 complete control)
# [21] = Preemergence, 62 g ai/ha, scale 0 to 100
# [22] = Preemergence, 125 g ai/ha, scale 0 to 100
# [23] = Preemergence, 250 g ai/ha, scale 0 to 100
smiles,measurement,setting,value
"Cc1nn(-c2ccc(C(F)(F)F)cc2)nc1Cc1ccnc(C(F)(F)F)c1 [Compound 47, 4-[[5-methyl-2-[4-(trifluoromethyl)phenyl]-2H-1,2,3-triazol-4-yl]methyl]-2-(trifluoromethyl)pyridine]","Plant response rating, Bermudagrass",[1]; [6],10
same,"Plant response rating, Bermudagrass",[1]; [7],20
same,"Plant response rating, Bermudagrass",[1]; [8],55
same,"Plant response rating, Bermudagrass",[1]; [9],75
same,"Plant response rating, Bermudagrass",[1]; [10],100
same,"Plant response rating, Bermudagrass",[1]; [11],100
same,"Plant response rating, Bermudagrass",[1]; [12],100
same,"Plant response rating, Bermudagrass",[1]; [13],100
same,pest or weed control at 62 g/ha,[2]; [14],90%
same,pest or weed control at 125 g/ha,[2]; [15],90%
same,pest or weed control at 250 g/ha,[2]; [16],90%
same,pest or weed control at 31 g/ha,"[2]; Flood, 31 g ai/ha",0%
"COc1nn(-c2ccc(C(F)(F)F)cc2)nc1Cn1ccc(C(F)(F)F)n1 [Compound 17, 4-methoxy-2-[4-(trifluoromethyl)phenyl]-5-[[3-(trifluoromethyl)-1H-pyrazol-1-yl]methyl]-2H-1,2,3-triazole]",pest or weed control at 62 g/ha,[2]; [14],0%
same,pest or weed control at 125 g/ha,[2]; [15],0%
same,pest or weed control at 250 g/ha,[2]; [16],20%
same,pest or weed control at 31 g/ha,"[2]; Flood, 31 g ai/ha",0%
"CCc1nn(-c2ccc(C(F)(F)F)cc2)nc1Oc1cccc(OC(F)(F)F)c1 [Compound 125, 4-ethyl-5-[3-(trifluoromethoxy)phenoxy]-2-[4-(trifluoromethyl)phenyl]-2H-1,2,3-triazole]",pest or weed control at 125 g/ha,[2]; [15],75%
same,pest or weed control at 250 g/ha,[2]; [16],90%
same,pest or weed control at 31 g/ha,"[2]; Flood, 31 g ai/ha",0%
same,pest or weed control at 62 g/ha,"[2]; Flood, 62 g ai/ha",0%
"Cc1nn(-c2ccc(F)cc2)nc1Oc1ccnc(C(F)(F)F)c1 [Compound 129, 4-[[2-(4-fluorophenyl)-5-methyl-2H-1,2,3-triazol-4-yl]oxy]-2-(trifluoromethyl)pyridine]",Plant response rating: Lambsquarters,[3]; [6],85
same,Plant response rating: Lambsquarters,[3]; [7],95
same,Plant response rating: Lambsquarters,[3]; [8],100
same,Plant response rating: Lambsquarters,[3]; [17],100
same,"Plant response rating, Lambsquarters",[3]; [18],85
same,"Plant response rating, Lambsquarters",[3]; [19],0
same,"Plant response rating, Lambsquarters",[3]; [20],80
same,"Plant response rating, Lambsquarters",[3]; [21],90
same,"Plant response rating, Lambsquarters",[3]; [22],90
same,"Plant response rating, Lambsquarters",[3]; [23],100
same,"Plant response rating, Bermudagrass",[1]; [6],40
same,"Plant response rating, Bermudagrass",[1]; [7],45
same,"Plant response rating, Bermudagrass",[1]; [8],60
same,"Plant response rating, Bermudagrass",[1]; [9],70
same,"Plant response rating, Bermudagrass",[1]; [10],98
same,"Plant response rating, Bermudagrass",[1]; [11],98
same,"Plant response rating, Bermudagrass",[1]; [12],98
same,"Plant response rating, Bermudagrass",[1]; [13],98
same,"Plant response rating: Wheat, Spring",[4]; [6],10
same,"Plant response rating: Wheat, Spring",[4]; [7],10
same,"Plant response rating: Wheat, Spring",[4]; [8],15
same,"Plant response rating: Wheat, Spring",[4]; [17],20
same,"Plant response rating, Wheat, Spring",[4]; [18],5
same,"Plant response rating, Wheat, Spring",[4]; [19],0
same,"Plant response rating, Wheat, Spring",[4]; [20],0
same,"Plant response rating, Wheat, Spring",[4]; [21],0
same,"Plant response rating, Wheat, Spring",[4]; [22],5
same,"Plant response rating, Wheat, Spring",[4]; [23],15
same,pest or weed control at 125 g/ha,[2]; [15],80%
same,pest or weed control at 250 g/ha,[2]; [16],90%
same,pest or weed control at 31 g/ha,"[2]; Flood, 31 g ai/ha",70%
same,pest or weed control at 62 g/ha,"[2]; Flood, 62 g ai/ha",75%
same,"Plant response rating: Foxtail, Green",[5]; [6],35
same,"Plant response rating: Foxtail, Green",[5]; [7],85
same,"Plant response rating: Foxtail, Green",[5]; [8],95
same,"Plant response rating: Foxtail, Green",[5]; [17],100
same,"Plant response rating, Foxtail, Green",[5]; [18],35
same,"Plant response rating, Foxtail, Green",[5]; [19],5
same,"Plant response rating, Foxtail, Green",[5]; [20],90
same,"Plant response rating, Foxtail, Green",[5]; [21],100
same,"Plant response rating, Foxtail, Green",[5]; [22],100
same,"Plant response rating, Foxtail, Green",[5]; [23],100
Cc1nn(-c2ccc(C(F)(F)F)cc2)nc1Cc1cccc(C(F)(F)F)c1 [Compound 124],"Plant response rating, Bermudagrass","[1]; Postemergence, 16 g ai/ha, scale 0 to 100, 0 no effect, 100 complete control",5
same,"Plant response rating, Bermudagrass",[1]; [6],25
same,"Plant response rating, Bermudagrass",[1]; [7],45
same,"Plant response rating, Bermudagrass",[1]; [8],60
same,"Plant response rating, Ducksalad",[2]; [15],90
same,"Plant response rating, Ducksalad",[2]; [16],90
same,"Plant response rating, Ducksalad","[2]; Flood, 31 g ai/ha",20
same,"Plant response rating, Ducksalad","[2]; Flood, 62 g ai/ha",90
